Where a name gives a salt, the structure may show the parent alone.
Tests used:
[1] = molecular target: MASP-2 (CCP1-CCP2-SP) (Homo sapiens (Human), UniProt O00187); experiment: Enzymatic Assay for MASP-2 (fluorogenic substrate); assay type: biochemical
[2] = molecular target: MASP-2 CCP2-SP (Homo sapiens (Human), UniProt O00187); experiment: MASP-2 co-crystallization, X-ray crystallography and structure analysis (H-bonds, van der Waals contacts); design: van der Waals contact distance, MASP-2 HIS 483 atom CD2 / van der Waals contact distance, MASP-2 HIS 483 atom NE2 / van der Waals contact distance, SER 654 C to compound atom / van der Waals contact distance, SER 654 O to compound atom / van der Waals contact distance, TRP 655 C to compound atom / van der Waals contact distance, MASP-2 GLY 528 atom CA / van der Waals contact distance TRP 655 atom CZ3 / van der Waals contact distance TRP 655 atom N / van der Waals contact distance TRP 655 atom CE3 / van der Waals contact distance GLY 656 atom C / van der Waals contact distance GLY 656 atom CA / van der Waals contact distance GLY 656 atom O / van der Waals contact distance, MASP-2 TYR 607 atom CD1 / van der Waals contact distance, MASP-2 PRO 606 atom O / d(C3,CA1) / d(CA1,N1)2 / d(H4,O1) / d(H4,O2) / d(O1,O2) / d(CA1,O2) / d(CA6,O1) / d(CA6,O2) / d(CA1,C5) / d(O2,H3) / d(N2,C2) / d(CA5,N2) / d(N2,C4) / d(N2,C6) / d(N2,CA3) / d(N2,O3) / d(O4,H2): unit not given beside the values; conditions: for van der Waals contact distance, MASP-2 amino acid atom to compound atom: ARG 630;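 as to Ligand-pharmacophore element distance, pharmacophore element C2: distance from averaged pharmacophore element to bound ligand; missing value means element absent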;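 as to Ligand-pharmacophore element distance, pharmacophore element C3: distance from averaged pharmacophore element to bound ligand; missing value means element absent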;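 as to Ligand-pharmacophore element distance, pharmacophore element C4: distance from averaged pharmacophore element to bound ligand; missing value means element absent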;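 as to Ligand-pharmacophore element distance, pharmacophore element C5: distance from averaged pharmacophore element to bound ligand; missing value means element absent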
Outline: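 E. coli-expressed CCP2-SP (±6His); apo crystals soaked 1–2× in inhibitor-containing crystallization solution; optional 20% glycerol cryoprotection, LN2 flash-cool; synchrotron data at 1.0 wavelength; MR using 1Q3X portions, partial refinement; single pose analysed when several seen.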

[3] = molecular target: human α-thrombin (Homo sapiens (Human), UniProt P00734); experiment: Enzymatic Assay for Thrombin (Boc-VPR-AMC); assay type: biochemical
[4] = tested on: Lectin Pathway; experiment: Lectin Pathway Activation Assay in Human Serum (mannan-coated ELISA, C3c detection); assay type: biochemical; conditions: 1% human serum
Description: Microtiter ELISA plate was coated with mannan from Saccharomyces cerevisiae (Sigma-Aldrich, M7504) for overnight at 4° C. in coating buffer [15 mM Na2CO3, 35 mM NaHCO3].

[5] = Table A5-1 pharmacophore: distance between elements, S2/S1 region
[6] = Table A5-2 pharmacophore distance, S3/S4 region
[7] = Table A7-1, between pharmacophore elements of the bound compound
[8] = Table A7-2, between pharmacophore elements of the bound compound
[9] = Table A8-6, nearest protein atom in cell to the left

Chain of MASP-2 CCP2-SP (O00187 445-686): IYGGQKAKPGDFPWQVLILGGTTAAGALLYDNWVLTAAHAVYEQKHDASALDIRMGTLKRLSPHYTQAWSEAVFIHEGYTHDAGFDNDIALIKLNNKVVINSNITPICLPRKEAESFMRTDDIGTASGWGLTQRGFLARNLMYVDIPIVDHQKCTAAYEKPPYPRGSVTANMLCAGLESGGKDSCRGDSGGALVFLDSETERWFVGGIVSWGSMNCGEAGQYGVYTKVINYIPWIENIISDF
Chain of MASP-2 CCP2-SP (O00187 364-432 partner): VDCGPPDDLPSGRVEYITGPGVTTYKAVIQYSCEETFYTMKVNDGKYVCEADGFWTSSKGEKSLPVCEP
Chain of MASP-2 (CCP1-CCP2-SP) (O00187 445-686): as the sequence (O00187 445-686) above

C[C@H](NC(=O)[C@H](N)CCc1cc(Cl)cc(Cl)c1)C(=O)NCc1ccc(C(=N)N)cc1 [compound 1118]
Ki [1]: < 500 nM | H-bond distance to MASP-2 GLY 656 atom N ([2]; Table A1 (H-Bonds), GLY 656 N): 3.07 | H-bond distance to MASP-2 GLY 656 atom O ([2]; Table A1 (H-Bonds), GLY 656 O): 2.77 | H-bond distance to MASP-2 SER 628 atom OG ([2]; Table A1 (H-Bonds), SER 628 OG): 3.18 | H-bond distance to MASP-2 SER 654 atom O ([2]; Table A1 (H-Bonds), SER 654 O): 2.88 | H-bond distance to MASP-2 SER 657 atom O ([2]; Table A1 (H-Bonds), SER 657 O): 2.93 | van der Waals contact distance, MASP-2 HIS 483 atom CD2 ([2]; Table A2-1): 3.64 | van der Waals contact distance, MASP-2 PHE 529 atom CD1 ([2]; Table A2-3): 3.52 | van der Waals contact distance, MASP-2 TYR 607 atom CA ([2]; Table A2-4): 3.79 | van der Waals contact distance, MASP-2 amino acid atom to compound atom ([2]; Table A2-9, AA atoms CG, CZ): 3.85 | van der Waals contact distance, MASP-2 amino acid atom to compound atom ([2]; Table A2-9 second part, AA atoms N, NE, NH1): 3.67 | van der Waals contact distance, VAL 653 CG1 to compound atom ([2]; Table A2-11): 3.86 | van der Waals contact distance GLY 656 atom C ([2]; Table A2-13, MASP-2 GLY 656 C): 3.63 | van der Waals contact distance TRP 655 atom CZ3 ([2]; Table A2-13, MASP-2 TRP 655 CZ3): 3.69 | van der Waals contact distance TRP 655 atom N ([2]; Table A2-13, MASP-2 TRP 655 N): 3.76 | van der Waals contact distance SER 657 atom C ([2]; Table A2-14, MASP-2 SER 657 C, columns c12-c13 (inferred)): 3.8 | Ligand-pharmacophore element distance, pharmacophore element C2 ([2]; Table A4-1, element C2): 0 | Ligand-pharmacophore element distance, pharmacophore element C3 ([2]; Table A4-1, element C3): 0 | Ligand-pharmacophore element distance, pharmacophore element C4 ([2]; Table A4-1, element C4): 2.54 | Ligand-pharmacophore element distance, pharmacophore element C5 ([2]; Table A4-1, element C5): 0 | Ligand-pharmacophore element distance, pharmacophore element C6 ([2]; Table A4-1, element C6): 1.17 | Ligand-pharmacophore element distance, pharmacophore element C7 ([2]; Table A4-1, element C7): 0 | Ligand-pharmacophore element distance, pharmacophore element CA1 ([2]; Table A4-1, element CA1): 0.43 | Ligand-pharmacophore element distance, pharmacophore element CA2 ([2]; Table A4-1, element CA2): 0.69 | Ligand-pharmacophore element distance, pharmacophore element CA3 ([2]; Table A4-1, element CA3): 0 | Ligand-pharmacophore element distance, pharmacophore element CA4 ([2]; Table A4-1, element CA4): 0 | Ligand-pharmacophore element distance, pharmacophore element CA5 ([2]; Table A4-1, element CA5): 0 | Ligand-pharmacophore element distance, pharmacophore element CA6 ([2]; Table A4-1, element CA6): 0 | d(CA1,N1) [2, 5]: 3.55 | d(CA1,O1) [2, 5]: 4.35 | d(CA1,O2) [2, 5]: 4.33 | d(H4,O1) [2, 5]: 4.85 | d(H4,O2) [2, 5]: 4.52 | d(O1,O2) [2, 5]: 3.25 | d(N2,C4) [2, 6]: 7.40 | d(N2,C4)4 [2, 6]: 7.40 | d(N2,C6) [2, 6]: 8.27 | d(N2,CA2) [2, 6]: 5.84 | d(O2,H3) [2, 6]: 5.85 | d(O2,N2) [2, 6]: 2.67 | a(CA1, O1, O2) ([2]; Table A6-1 pharmacophore angle): 111.55 | a(O1, O2, H4) ([2]; Table A6-1 pharmacophore angle): 139.63 | A(N1, CA1, O1) a) ([2]; Table A6-1 pharmacophore angle, all compounds with protonatable center N1 except Methyl-amino-pyridine): 162.73 | a(O1, O2, H3) ([2]; Table A6-2 pharmacophore angle): 152.79 | a(O1, O2, N2) ([2]; Table A6-2 pharmacophore angle): 137.47 | a(O2, N2, C4) ([2]; Table A6-2 pharmacophore angle): 162.84 | a(O2, N2, C4) 2 ([2]; Table A6-2 pharmacophore angle): 125.21 | a(O2, N2, C6) ([2]; Table A6-2 pharmacophore angle): 88.59 | a(O2, N2, CA2) ([2]; Table A6-2 pharmacophore angle): 154.60 | Pharmacophore torsion angle a(H4, O1, O2, H3) [2, 7]: 38.74 | Pharmacophore torsion angle a(H4, O1, O2, N2) [2, 7]: 128.20 | Pharmacophore torsion angle a(N1, CA1, O2, H4) [2, 7]: −132.91 | Pharmacophore torsion angle a(O1, H4, O2, CA1) [2, 7]: −65.17 | Pharmacophore torsion angle a(O1, O2, N2, C6) [2, 8]: 150.07 | Pharmacophore torsion angle a(O1, O2, N2, CA2) [2, 8]: 145.00 | Pharmacophore protein distance to MET_658 (first MET_658 column) ([2]; Table A8-6, 6th residue column, nearest protein atom in cell to the left): 1.45 | Pharmacophore protein distance to MET_658 (second MET_658 column) ([2]; Table A8-6, 9th residue column, nearest protein atom in cell to the left): 3.28 | Pharmacophore protein distance to GLY_528 [2, 9]: 3.82 | Pharmacophore protein distance to PHE_529 [2, 9]: 3.01 | Pharmacophore protein distance to PRO_608 [2, 9]: 4.83 | Pharmacophore protein distance to SER_611 [2, 9]: 3.12 | Pharmacophore protein distance to TRP_655 ([2]; Table A8-6, pharmacophore elements C6, CA3, O3, H1, nearest protein atom in cell to the left): 3.71 | Ki [3]: < 500 nM

COc1cc(C[C@@H]2CN[C@@H](C(=O)N[C@@H](C)C(=O)NCc3cc(Cl)ccc3-n3cnnn3)C2)cc(OC)c1 [compound 1419, (2R,4S)—N—((S)-1-((5-Chloro-2-(1H-tetrazol-1-yl)benzyl)amino)-1-oxopropan-2-yl)-4-(3,5-dimethoxybenzyl)pyrrolidine-2-carboxamide Trifluoroacetate salt]
Ki [1]: < 500 nM | Ki [3]: < 500 nM | IC50 [4]: < 50 nM

From patent US12195427B2, “MASP-2 inhibitors and methods of use” (priority 2018, dated 2025)
